In US8076487B2, “Pyridone derivative and herbicide” (Kumiai Chemical Industry Co., Ltd., priority 2006, dated 2011):

Assays:
Type in all cases: in vivo
[1] = test system: Japanese bulrush (Scirpus juncoides Roxb.); experiment: Test Example 1: herbicidal effect by soil application to paddy field; conditions: paddy field soil application; active ingredient 1,000 g per 1 hectare; wettable powder added dropwise to water surface the day after sowing; examined on the 21st day after application
Summary of the method: (§1)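 Under greenhouse conditions, seeds sown on puddled paddy soil in 100 cm2 pots under 3 cm of standing water received the test compound; injury was assessed with a standard scoring scheme three weeks (day 21) after treatment.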

[2] = test system: early watergrass (Echinochloa oryzicola Vasing); experiment: as above; conditions: paddy field soil application; active ingredient 1,000 g per 1 hectare; wettable powder added dropwise to water surface the day after sowing; examined on the 21st day after application
Summary of the method: as §1

[3] = test system: heartshape false pickerelweed (Monochoria vaginalis (Burm.f.) C.Presl); experiment: as above; conditions: paddy field soil application; active ingredient 1,000 g per 1 hectare; wettable powder added dropwise to water surface the day after sowing; examined on the 21st day after application
Summary of the method: as §1

[4] = test system: velvetleaf (Abutilon theophrasti medicus); experiment: Test Example 2: herbicidal effect by soil application to upland field; conditions: soil surface spray, upland field soil, 1,000 g active ingredient per hectare, 21st day after application
Summary of the method: (§2)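 After sowing and covering, the soil received an even aqueous spray of wettable powder at a rate of 1,000 g active ingredient/ha (1,000 L/ha). Ratings of herbicidal effect followed a standard scale 21 days post-treatment, with plants held in a greenhouse.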

[5] = test system: slender amaranth (Amaranthus viridis L.); experiment: as above; conditions: soil surface spray, upland field soil, 1,000 g active ingredient per hectare, 21st day after application
Summary of the method: as §2

[6] = test system: green foxtail (Setaria viridis (L.) P. Beauv.); experiment: as above; conditions: soil surface spray, upland field soil, 1,000 g active ingredient per hectare, 21st day after application
Summary of the method: as §2

[7] = test system: barnyardgrass (Echinochloa crus-galli (L.) P. Beauv. var. crus-galli); experiment: as above; conditions: soil surface spray, upland field soil, 1,000 g active ingredient per hectare, 21st day after application
Summary of the method: as §2

[8] = test system: velvetleaf (Abutilon theophrasti medicus); experiment: Test Example 3: herbicidal effect by application to upland field (foliage treatment); conditions: 14th day after application; for herbicidal effect (index), Velvetleaf: foliage treatment, plants grown two weeks, 1,000 g active ingredient per hectare; for herbicidal effect, Velvetleaf: foliage treatment, 1,000 g active ingredient per 1 hectare, greenhouse
Summary of the method: (§3)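 Dose 1,000 g active ingredient/ha, sprayed as diluted wettable powder over entire plants two weeks after sowing in field soil. Kept in greenhouse; herbicidal effect graded on a standard scale on day 14.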

[9] = test system: slender amaranth (Amaranthus viridis L.); experiment: as above; conditions: 14th day after application; for herbicidal effect (index), Slender Amaranth: foliage treatment, plants grown two weeks, 1,000 g active ingredient per hectare; for herbicidal effect, Slender Amaranth: foliage treatment, 1,000 g active ingredient per 1 hectare, greenhouse
Summary of the method: as §3

[10] = test system: green foxtail (Setaria viridis (L.) P. Beauv.); experiment: as above; conditions: 14th day after application; for herbicidal effect (index), Green Foxtail: foliage treatment, plants grown two weeks, 1,000 g active ingredient per hectare; for herbicidal effect, Green Foxtail: foliage treatment, 1,000 g active ingredient per 1 hectare, greenhouse
Summary of the method: as §3

[11] = test system: barnyardgrass (Echinochloa crus-galli (L.) P. Beauv. var. crus-galli); experiment: as above; conditions: 14th day after application; for herbicidal effect (index), Barnyardgrass: foliage treatment, plants grown two weeks, 1,000 g active ingredient per hectare; for herbicidal effect, Barnyardgrass: foliage treatment, 1,000 g active ingredient per 1 hectare, greenhouse
Summary of the method: as §3

SMILES	herbicidal effect, Scirpus juncoides Roxb. [1]	herbicidal effect, Echinochloa oryzicola Vasing [2]	herbicidal effect, Monochoria vaginalis (Burm. f.) C. Presl [3]	herbicidal effect (index), Velvetleaf [4]	herbicidal effect (index), Slender Amaranth [5]	herbicidal effect (index), Green Foxtail [6]	herbicidal effect (index), Barnyardgrass [7]	herbicidal effect (index), Velvetleaf [8]	herbicidal effect (index), Slender Amaranth [9]	herbicidal effect (index), Green Foxtail [10]	herbicidal effect (index), Barnyardgrass [11]	herbicidal effect, Velvetleaf [8]	herbicidal effect, Slender Amaranth [9]	herbicidal effect, Green Foxtail [10]	herbicidal effect, Barnyardgrass [11]
CS(=O)(=O)CCn1c(C(F)(F)F)ccc(C(=O)C2=C(O)CCCC2=O)c1=O [I-67]	5 (90% or more of herbicidal effect and crop phytotoxicity)	5 (90% or more of herbicidal effect and crop phytotoxicity)	5 (90% or more of herbicidal effect and crop phytotoxicity)	5 (90% or more of herbicidal effect and crop phytotoxicity)	5 (90% or more of herbicidal effect and crop phytotoxicity)	5 (90% or more of herbicidal effect and crop phytotoxicity)	5 (90% or more of herbicidal effect and crop phytotoxicity)	5 (90% or more of herbicidal effect and crop phytotoxicity)	5 (90% or more of herbicidal effect and crop phytotoxicity)	5 (90% or more of herbicidal effect and crop phytotoxicity)	5 (90% or more of herbicidal effect and crop phytotoxicity)				
CC1CC(C)(C)C(O)=C(C(=O)c2ccc(C(F)(F)F)n(C)c2=O)C1=O (stereo not shown) [II-5]	5 (90% or more of herbicidal effect and crop phytotoxicity)	5 (90% or more of herbicidal effect and crop phytotoxicity)	5 (90% or more of herbicidal effect and crop phytotoxicity)	5 (90% or more of herbicidal effect and crop phytotoxicity)	5 (90% or more of herbicidal effect and crop phytotoxicity)	5 (90% or more of herbicidal effect and crop phytotoxicity)	5 (90% or more of herbicidal effect and crop phytotoxicity)					5 (90% or more of herbicidal effect and crop phytotoxicity)	4 (70 to less than 90% of herbicidal effect and crop phytotoxicity)	3 (50 to less than 70% of herbicidal effect and crop phytotoxicity)	4 (70 to less than 90% of herbicidal effect and crop phytotoxicity)
O=C1CCCC(O)=C1C(=O)c1ccc(C(F)(F)F)n(CCc2ccccc2)c1=O [I-129]	5 (90% or more of herbicidal effect and crop phytotoxicity)	5 (90% or more of herbicidal effect and crop phytotoxicity)	4 (70 to less than 90% of herbicidal effect and crop phytotoxicity)	5 (90% or more of herbicidal effect and crop phytotoxicity)	5 (90% or more of herbicidal effect and crop phytotoxicity)	4 (70 to less than 90% of herbicidal effect and crop phytotoxicity)	5 (90% or more of herbicidal effect and crop phytotoxicity)					5 (90% or more of herbicidal effect and crop phytotoxicity)	5 (90% or more of herbicidal effect and crop phytotoxicity)	5 (90% or more of herbicidal effect and crop phytotoxicity)	5 (90% or more of herbicidal effect and crop phytotoxicity)
N#Cc1ccc(C(=O)C2=C(O)CCCC2=O)c(=O)n1-c1ccccc1 [I-243]	5 (90% or more of herbicidal effect and crop phytotoxicity)	5 (90% or more of herbicidal effect and crop phytotoxicity)	5 (90% or more of herbicidal effect and crop phytotoxicity)	5 (90% or more of herbicidal effect and crop phytotoxicity)	5 (90% or more of herbicidal effect and crop phytotoxicity)	5 (90% or more of herbicidal effect and crop phytotoxicity)	5 (90% or more of herbicidal effect and crop phytotoxicity)					5 (90% or more of herbicidal effect and crop phytotoxicity)	5 (90% or more of herbicidal effect and crop phytotoxicity)	5 (90% or more of herbicidal effect and crop phytotoxicity)	5 (90% or more of herbicidal effect and crop phytotoxicity)
C[S+]([O-])CCn1c(C(F)(F)F)ccc(C(=O)C2=C(O)CCCC2=O)c1=O (stereo not shown) [I-66]	5 (90% or more of herbicidal effect and crop phytotoxicity)	5 (90% or more of herbicidal effect and crop phytotoxicity)	5 (90% or more of herbicidal effect and crop phytotoxicity)	5 (90% or more of herbicidal effect and crop phytotoxicity)	5 (90% or more of herbicidal effect and crop phytotoxicity)	5 (90% or more of herbicidal effect and crop phytotoxicity)	5 (90% or more of herbicidal effect and crop phytotoxicity)	5 (90% or more of herbicidal effect and crop phytotoxicity)	5 (90% or more of herbicidal effect and crop phytotoxicity)	5 (90% or more of herbicidal effect and crop phytotoxicity)	5 (90% or more of herbicidal effect and crop phytotoxicity)				
Nn1c(C(F)(F)F)ccc(C(=O)C2=C(O)CCCC2=O)c1=O [I-156]	5 (90% or more of herbicidal effect and crop phytotoxicity)	5 (90% or more of herbicidal effect and crop phytotoxicity)	5 (90% or more of herbicidal effect and crop phytotoxicity)	5 (90% or more of herbicidal effect and crop phytotoxicity)	5 (90% or more of herbicidal effect and crop phytotoxicity)	4 (70 to less than 90% of herbicidal effect and crop phytotoxicity)	5 (90% or more of herbicidal effect and crop phytotoxicity)					5 (90% or more of herbicidal effect and crop phytotoxicity)	5 (90% or more of herbicidal effect and crop phytotoxicity)	4 (70 to less than 90% of herbicidal effect and crop phytotoxicity)	5 (90% or more of herbicidal effect and crop phytotoxicity)
COc1ccc(-n2c(C(F)(F)F)ccc(C(=O)c3cnn(C)c3O)c2=O)cc1F [IV-92]	5 (90% or more of herbicidal effect and crop phytotoxicity)	5 (90% or more of herbicidal effect and crop phytotoxicity)	5 (90% or more of herbicidal effect and crop phytotoxicity)	5 (90% or more of herbicidal effect and crop phytotoxicity)	5 (90% or more of herbicidal effect and crop phytotoxicity)	5 (90% or more of herbicidal effect and crop phytotoxicity)	5 (90% or more of herbicidal effect and crop phytotoxicity)					4 (70 to less than 90% of herbicidal effect and crop phytotoxicity)	5 (90% or more of herbicidal effect and crop phytotoxicity)	4 (70 to less than 90% of herbicidal effect and crop phytotoxicity)	4 (70 to less than 90% of herbicidal effect and crop phytotoxicity)
O=C1CCCC(O)=C1C(=O)c1ccc(C(F)(F)F)n(-c2ccsc2)c1=O [I-148]	5 (90% or more of herbicidal effect and crop phytotoxicity)	5 (90% or more of herbicidal effect and crop phytotoxicity)	5 (90% or more of herbicidal effect and crop phytotoxicity)	5 (90% or more of herbicidal effect and crop phytotoxicity)	5 (90% or more of herbicidal effect and crop phytotoxicity)	5 (90% or more of herbicidal effect and crop phytotoxicity)	5 (90% or more of herbicidal effect and crop phytotoxicity)					5 (90% or more of herbicidal effect and crop phytotoxicity)	5 (90% or more of herbicidal effect and crop phytotoxicity)	5 (90% or more of herbicidal effect and crop phytotoxicity)	5 (90% or more of herbicidal effect and crop phytotoxicity)
